Data on 1 substance can be found in patent US7425548B2, “Materials and methods for immune system stimulation” (Variety Chidren's Hospital, priority 2004, dated 2008).

Assay [1] concerns HEK293 cells transfected with TLR2/6. The experiment in a line: TLR signaling, IL-8 ELISA. In kind it is cell-based, human. The following applies: HEK/TLR2/6, RR1 0-100 μg/ml, 24 hours. The method, then:
HEK293/TLR2/TLR6 cells (1×10^6) were treated with RR1 (0, 10, 50 and 100 μg/ml) at 37° C. for 24 hours and secreted IL-8 in the medium was analyzed by ELISA protocol.
TLR signaling. To determine the involvement of TLR signaling, parental HEK293 as well as HEK293 cells transfected with human TLR2, TLR6, TLR2/6 or TLR4/CD14/MD2 genes (cloned into pDUO plasmid), were used. These cells (0.5×10^6/ml) were incubated with 0-100 μg/ml of RR1 for 24 hours. Since these cells produce very low level of TNF-α and detectable levels of IL-8 upon activation, IL-8 secreted into the medium was analyzed using ELISA procedure. Incidentally, the IL-8 synthesis is also under the control of the transcription factor NF-κB.
In general terms: An ELISA detects its analyte on a solid surface through an enzyme-linked reagent.

For a further assay, the system named is RAW264.7 macrophages. The experiment in a line: Opsonized binding and phagocytosis of FITC-zymosan A bioparticles. Format: cell-based, mouse. The conditions noted are these: 500 μg/ml, 37° C., 1 hour. The method, then:
Monocytes were incubated with RR1 at 37° C. for 1 hour followed by FITC-labeled zymosan A bioparticles for another 1 hour at 37° C. The cells were washed and intracellular fluorescence measured in a Coulter Elite Flow cytometer.
Opsonized binding and Phagocytosis. To determine the effect of RR1 and laminarin on opsonized binding and phagocytosis of zymosan A particles, RAW 264.7 cells were treated with RR1 or laminarin (0 and 500 μg/ml) in DMEM at 37° C. for 1 hour. This will ensure the release of opsonins and facilitate opsonic binding. The cells were washed with PBS twice and incubated with zymosan A-FITC bioparticles at a ratio of 25 particles/cell at 37° C. for 1 hour. The cells were suspended in PBS after removing the unbound zymosan particles by extensive washing with the medium, and the intracellular fluorescence analyzed in a Coulter Elite flow cytometer. The fluorescence intensity was expressed as percentage of control.

The target of assay [2] is T1, CR3 (CD11b) on RAW 264.7 macrophages (Mus musculus, UniProt P05555).
T1 construct: endogenous in cells; host or cells: RAW 264.7 mouse macrophages (ATCC)
The experiment in a line: Blocking of CR3 with CD11b mAb, glucan-induced TNF-α synthesis. Format: cell-based. The conditions noted are these: anti-CD11b mAb 5 μg/ml, 37° C. The method, then: Effect Blocking of CR3 with CD11b mAb on opsonised binding. To examine whether the glucan specific receptors CR3 is involved in the opsonised recognition/binding of RR1 on macrophages, monoclonal antibodies (mAbs) specific for CR3 (Rat antimouse CD11b from BD BIOSCIENCES, San Jose, Calif.) were used for blocking the CR3. […] TNF-α released by the macrophages into the medium was analyzed by ELISA kit (BD Biosciences, San Jose, Calif.) (Brown, G. D. et al. J. Expt. Med., 2002, 196:407-412; Brown, G. D. et al. J. Exp. Med., 2003, 197:1119-1124).

Assay [3] has as its system I-κBα in RAW 264.7 macrophages. The experiment in a line: I-κBα degradation, immunoblot. In kind it is cell-based, mouse. The following applies: RR1 100 μg/ml, western blot. The method, then:
The cells were treated with RR1 at intervals of 15, 30, and 60 minutes. Degradation of I-κBα levels in cytoplasmic lysates was determined by immunoblot analysis using antimouse I-κBα mAb. I-κBα degradation. The degradation of IκB-α is a prerequisite for the activation of NF-κB. To determine the effect of RR1 on cellular IκB-α levels and its degradation, immunoblot analysis was performed with cytosolic lysates from RR1-treated RAW 264.7 macrophages for different time periods (0, 15 minutes, 30 minutes, 1 hour). The lysates were separated by SDS-PAGE on 12% gels and transferred to nitrocellulose membranes using a TransBlot apparatus (BIO-RAD, Hercules, Calif.). The membranes were hybridized with IκB-α specific monoclonal antibodies (1:1000) by the Western blot hybridization protocol (Lebron, F. et al. J Biol Chem., 2003, 278:25001-25008) using antimouse IκB-α antibody (CELL SIGNALING TECHNOLOGY, Inc, Beverly, Mass.) using the color detection system (BIO-RAD, Hercules, Calif.).
A general note: A western blot detects proteins with antibodies after separation by electrophoresis.

The subject of the next assay is iNOS. The experiment in a line: iNOS induction immunoassay. In kind it is cell-based, human. The conditions noted are these: cytoplasmic extract of cells treated with RR1. The method, then:
Inducible Nitric Oxide Synthase (iNOS) induction and Nitric oxide (NO) synthesis. Higher and long lasting release of NO is caused by the enzyme iNOS upon stimulation with […]. The iNOS induction by RR1 stimulation was assayed by QUANTIKINE iNOS immunoassay kit (R&D systems, Minneapolis, Minn.) which employs a sandwich enzyme immunoassay technique. The iNOS was assayed from the cytoplasmic extract of the cells treated with different concentrations of RR1. The samples and standards were pipetted in to the wells of the 96-well plate and any iNOS present was bound to the immobilized antibody. After washing away the unbound substances, an enzyme linked monoclonal antibody specific for iNOS was added. After washing away the unbound antibody enzyme reagent, the color developing substrate solution was added, the color development was stopped by stop solution and the absorbance was read at 450 nm with a reference wave length of 570 nm in the Bio-Rad plate reader.

T1 sequence (P05555 17-1153): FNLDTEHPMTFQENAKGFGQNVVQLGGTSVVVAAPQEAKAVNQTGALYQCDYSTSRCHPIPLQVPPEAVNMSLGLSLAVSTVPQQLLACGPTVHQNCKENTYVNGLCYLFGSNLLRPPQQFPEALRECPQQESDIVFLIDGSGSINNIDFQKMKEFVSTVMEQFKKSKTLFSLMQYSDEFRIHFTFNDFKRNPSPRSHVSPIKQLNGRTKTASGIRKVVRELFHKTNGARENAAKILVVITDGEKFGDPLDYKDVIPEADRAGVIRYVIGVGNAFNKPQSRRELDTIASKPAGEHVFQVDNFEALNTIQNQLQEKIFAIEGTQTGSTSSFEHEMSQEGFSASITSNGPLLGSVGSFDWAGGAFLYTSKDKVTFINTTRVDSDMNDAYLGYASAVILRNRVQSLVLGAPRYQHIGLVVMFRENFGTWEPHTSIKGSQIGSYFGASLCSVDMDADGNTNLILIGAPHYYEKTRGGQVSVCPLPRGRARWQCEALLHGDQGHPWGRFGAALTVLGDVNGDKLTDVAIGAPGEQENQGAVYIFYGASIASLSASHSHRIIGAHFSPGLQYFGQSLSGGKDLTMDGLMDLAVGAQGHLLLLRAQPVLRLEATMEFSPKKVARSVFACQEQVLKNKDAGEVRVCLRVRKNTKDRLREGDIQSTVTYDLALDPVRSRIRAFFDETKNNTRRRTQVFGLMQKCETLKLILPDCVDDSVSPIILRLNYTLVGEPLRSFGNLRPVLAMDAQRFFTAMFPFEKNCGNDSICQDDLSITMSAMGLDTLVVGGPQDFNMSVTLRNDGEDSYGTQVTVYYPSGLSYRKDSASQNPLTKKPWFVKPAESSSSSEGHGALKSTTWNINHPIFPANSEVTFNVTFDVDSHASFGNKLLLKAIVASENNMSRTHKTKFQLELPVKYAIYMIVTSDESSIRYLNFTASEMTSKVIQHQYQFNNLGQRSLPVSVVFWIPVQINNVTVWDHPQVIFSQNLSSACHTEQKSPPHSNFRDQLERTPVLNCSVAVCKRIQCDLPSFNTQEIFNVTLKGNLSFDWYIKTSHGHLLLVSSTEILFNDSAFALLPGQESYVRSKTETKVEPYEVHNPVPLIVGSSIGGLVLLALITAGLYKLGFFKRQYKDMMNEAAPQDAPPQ
T1 sequence (P11835 24-771 partner): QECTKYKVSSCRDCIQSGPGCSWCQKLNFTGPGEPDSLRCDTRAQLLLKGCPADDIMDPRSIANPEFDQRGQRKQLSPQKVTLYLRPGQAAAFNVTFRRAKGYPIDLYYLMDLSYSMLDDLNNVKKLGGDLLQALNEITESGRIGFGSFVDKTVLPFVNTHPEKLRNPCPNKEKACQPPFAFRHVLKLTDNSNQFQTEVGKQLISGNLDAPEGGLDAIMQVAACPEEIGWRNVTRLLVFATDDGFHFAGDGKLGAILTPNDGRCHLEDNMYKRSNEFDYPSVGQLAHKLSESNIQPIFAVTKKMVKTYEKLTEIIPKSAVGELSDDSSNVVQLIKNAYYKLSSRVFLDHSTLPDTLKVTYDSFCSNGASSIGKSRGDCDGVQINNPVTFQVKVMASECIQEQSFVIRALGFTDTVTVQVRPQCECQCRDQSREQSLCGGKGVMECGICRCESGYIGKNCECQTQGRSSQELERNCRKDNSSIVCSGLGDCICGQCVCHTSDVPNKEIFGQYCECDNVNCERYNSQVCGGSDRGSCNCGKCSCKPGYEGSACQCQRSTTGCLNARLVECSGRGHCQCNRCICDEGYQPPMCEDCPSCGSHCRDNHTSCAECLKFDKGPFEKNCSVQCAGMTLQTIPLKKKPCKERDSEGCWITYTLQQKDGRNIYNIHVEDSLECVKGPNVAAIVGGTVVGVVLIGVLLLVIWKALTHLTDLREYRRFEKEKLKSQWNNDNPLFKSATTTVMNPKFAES

For (1,4)-α-D-glucan [RR1], the IL-8 production entry in assay [1] was “copious induction of IL-8”. In addition, the entries for the “inhibitory effect on opsonized binding and phagocytosis of zymosan A bioparticles” value with RAW264.7 macrophages and with RAW264.7 macrophages (listed as RR-1) were “failed to show any significant effect” and “only little inhibitory effect”, respectively. The “% reduction of secreted TNF-α” value in assay [2] (then glucan 100 μg/ml) is 4.25 ± 3.66%; in assay [2] (then glucan 500 μg/ml), 1.89 ± 0.50%. Besides, the “time to complete removal of I-κBα expression” value in assay [3] amounted to 60 min. Further, the “induction of iNOS” value with iNOS was “did not stimulate the induction of iNOS significantly”.
